In article PMC10160475, “Biological evaluation and in silico studies of novel compounds as potent TAAR1 agonists that could be used in schizophrenia treatment” (Frontiers in Pharmacology, 2023):
Read-outs that look alike come from different tables or passages of the source.

How the values were obtained:
[1] = biological target: T1, human dopamine D2L receptors (Homo sapiens, UniProt P14416); experiment: cAMP assay, inhibition at human dopamine D2L receptors; type: cell-based
T1 construct: expressed in transfected cells; host or cells: Flp-In-CHO cells
T1 sequence (P14416 whole entry): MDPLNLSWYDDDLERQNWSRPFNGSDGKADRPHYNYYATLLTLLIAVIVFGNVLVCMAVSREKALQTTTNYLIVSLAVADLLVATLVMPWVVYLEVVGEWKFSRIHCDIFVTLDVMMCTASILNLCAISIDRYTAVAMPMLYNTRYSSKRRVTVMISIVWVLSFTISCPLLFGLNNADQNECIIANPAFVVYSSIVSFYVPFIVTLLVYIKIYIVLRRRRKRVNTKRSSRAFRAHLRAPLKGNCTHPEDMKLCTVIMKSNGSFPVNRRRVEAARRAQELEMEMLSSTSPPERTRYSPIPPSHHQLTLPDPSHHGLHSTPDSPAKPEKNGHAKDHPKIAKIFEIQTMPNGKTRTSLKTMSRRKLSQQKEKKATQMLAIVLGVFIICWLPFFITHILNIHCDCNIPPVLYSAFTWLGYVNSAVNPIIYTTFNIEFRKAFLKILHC
Method: (§1) With regard to D2L and D2S, recombinant Flp-In™-CHO cells expressing human dopamine D2L receptors or D2S receptors were cultured with Ham’s F-12K (Kaighn’s) medium supplemented with 10% FBS, penicillin (100 U/ml), streptomycin (100 μg/ml), and hygromycin B (600 μg/ml) at 37°C in an atmosphere of 5% CO2. The methods of cell inoculation and compound treatment were the same as those for TAAR1, and haloperidol was used as the MAX control. Percentage inhibition was calculated using the following equation: Inhibition %=mean RLUtest sample−mean RLUvehicle control/mean RLUMAX control−mean RLUvehicle control×100%.

human 5-HT2A [2] = biological target: T2, human 5-HT2A (Homo sapiens, UniProt P28223); experiment: Calcium (FLIPR) assay, antagonist activity at human 5-HT2A; type: cell-based
T2 construct: expressed in transfected cells; host or cells: Flp-In-CHO cell line
T2 sequence (P28223 whole entry): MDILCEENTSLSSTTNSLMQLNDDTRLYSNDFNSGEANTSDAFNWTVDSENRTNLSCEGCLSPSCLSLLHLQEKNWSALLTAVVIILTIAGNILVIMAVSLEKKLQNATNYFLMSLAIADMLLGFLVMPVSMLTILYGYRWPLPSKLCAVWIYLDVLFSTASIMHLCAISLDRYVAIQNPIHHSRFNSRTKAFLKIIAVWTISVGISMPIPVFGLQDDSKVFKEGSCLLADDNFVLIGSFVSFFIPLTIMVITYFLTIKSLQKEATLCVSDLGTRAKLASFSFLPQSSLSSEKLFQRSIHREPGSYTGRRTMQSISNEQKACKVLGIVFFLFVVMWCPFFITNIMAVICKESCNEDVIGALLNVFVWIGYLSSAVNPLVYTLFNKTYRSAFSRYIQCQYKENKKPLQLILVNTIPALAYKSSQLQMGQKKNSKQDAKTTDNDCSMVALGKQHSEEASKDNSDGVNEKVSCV
Method: (§2) With regard to 5-HT2A, the agonistic or inhibitory activity of 5-HT2A of compounds was determined using the Flp-In™-CHO cell line expressing human 5-HT2A. Cells were cultured with Ham’s F-12K (Kaighn’s) medium supplemented with 10% FBS, penicillin (100 U/ml), streptomycin (100 μg/ml), and hygromycin B (600 μg/ml) at 37°C in an atmosphere of 95% air and 5% CO2. Cells were stimulated with different concentrations of compounds for 2 h at 37°C after seeding in 384-well microplates. For the determination of agonistic activity, serotonin was used as the MAX control. In the determination of inhibitory activity, ketanserin was used as the MAX control.

human 5-HT2A [3] = biological target: T2, human 5-HT2A; experiment: Calcium (FLIPR) assay, agonist activity at human 5-HT2A; type: cell-based
Method: as §2

[4] = Liver microsomal stability, mouse
Method: Compounds were incubated with samples of liver microsomes from mice, rats, and humans and NADPH for 5, 10, 20, 30, or 60 min at 37°C. A cold acetonitrile solution containing tolbutamide was used to terminate the reaction. Testosterone and dextromethorphan were used as positive controls. LC-MS/MS was employed to determine the retention of compounds. The retention time, chromatogram acquisition, and chromatogram integration of compounds and positive control substances were analyzed using Analyst (AB Sciex, Framingham, MA, United States).

[5] = Pharmacokinetics study in rats; type: in vivo, Sprague–Dawley rats
Method: Compound 50B was dissolved in physiologic (0.9%) saline. Male and female rats were fasted overnight before dosing to avoid the possible effects of food. Compound 50B was administered via intragastric (5 mg/kg) and intravenous (2 mg/kg) routes to female and male rats. Approximately 200 μL of whole blood was collected into heparin-coated tubes at 0.083, 0.25, 0.5, 1, 2, 3, 4, 6, 8, 12, and 24 h after dosing. Plasma was collected immediately by centrifugation (8,000 g, 5 min, room temperature). Blood was placed in a heparinized Eppendorf™ tube. Plasma was centrifuged, and the concentration of compounds in the sample was determined by LC-MS/MS after pre-treatment. Drug-concentration data were processed in a […] using WinNonlin™ 6.3 (Pharsight, Mountain View, CA, United States).

[6] = test system: MK801-induced schizophrenia-like behavior; experiment: MK801-induced schizophrenia-like behavior (open field, distance traveled); type: in vivo, C57BI/6J mice
Method: Ninety-nine male C57BI/6J mice were divided randomly into 11 groups. Mice were placed in a room 1 h before testing. They were administered (p.o.) vehicle (0.1 ml/10 g), 50A (0.3, 1, 3, and 10 mg/kg; 0.1 ml/10 g), or 50B (0.3, 1, 3, and 10 mg/kg; 0.1 ml/10 g). […] Then, mice were administered (i.p.) MK801 (0.8 mg/kg dissolved in physiologic saline; 0.1 ml/10 g). After 30 min, the distance that mice traveled was measured.
Forty-six male C57BI/6J mice were divided randomly into four groups. The CN group contained four mice. […] The administration method described previously was employed.

[7] = Permeability and transporter substrate evaluation in Caco-2 cells; type: in vitro ADME; details: human
Method: Cells were seeded into 96-well cell plates and cultured continuously for 24 days for subsequent experiments. Compounds were administered with or without verapamil (2 µM). […] The […] content in each sample was measured by liquid chromatography–tandem mass spectrometry (LC-MS/MS). The apparent permeability coefficient and the efflux ratio were calculated.

hERG = biological target: T3, hERG (Homo sapiens, UniProt Q12809); experiment: hERG assay (electrophysiological recording, CHO cells stably expressing hERG); type: cell-based; details: up to a maximum concentration of 30 μM
T3 construct: expressed in transfected cells; host or cells: CHO cells stably expressing hERG
T3 sequence (Q12809 whole entry): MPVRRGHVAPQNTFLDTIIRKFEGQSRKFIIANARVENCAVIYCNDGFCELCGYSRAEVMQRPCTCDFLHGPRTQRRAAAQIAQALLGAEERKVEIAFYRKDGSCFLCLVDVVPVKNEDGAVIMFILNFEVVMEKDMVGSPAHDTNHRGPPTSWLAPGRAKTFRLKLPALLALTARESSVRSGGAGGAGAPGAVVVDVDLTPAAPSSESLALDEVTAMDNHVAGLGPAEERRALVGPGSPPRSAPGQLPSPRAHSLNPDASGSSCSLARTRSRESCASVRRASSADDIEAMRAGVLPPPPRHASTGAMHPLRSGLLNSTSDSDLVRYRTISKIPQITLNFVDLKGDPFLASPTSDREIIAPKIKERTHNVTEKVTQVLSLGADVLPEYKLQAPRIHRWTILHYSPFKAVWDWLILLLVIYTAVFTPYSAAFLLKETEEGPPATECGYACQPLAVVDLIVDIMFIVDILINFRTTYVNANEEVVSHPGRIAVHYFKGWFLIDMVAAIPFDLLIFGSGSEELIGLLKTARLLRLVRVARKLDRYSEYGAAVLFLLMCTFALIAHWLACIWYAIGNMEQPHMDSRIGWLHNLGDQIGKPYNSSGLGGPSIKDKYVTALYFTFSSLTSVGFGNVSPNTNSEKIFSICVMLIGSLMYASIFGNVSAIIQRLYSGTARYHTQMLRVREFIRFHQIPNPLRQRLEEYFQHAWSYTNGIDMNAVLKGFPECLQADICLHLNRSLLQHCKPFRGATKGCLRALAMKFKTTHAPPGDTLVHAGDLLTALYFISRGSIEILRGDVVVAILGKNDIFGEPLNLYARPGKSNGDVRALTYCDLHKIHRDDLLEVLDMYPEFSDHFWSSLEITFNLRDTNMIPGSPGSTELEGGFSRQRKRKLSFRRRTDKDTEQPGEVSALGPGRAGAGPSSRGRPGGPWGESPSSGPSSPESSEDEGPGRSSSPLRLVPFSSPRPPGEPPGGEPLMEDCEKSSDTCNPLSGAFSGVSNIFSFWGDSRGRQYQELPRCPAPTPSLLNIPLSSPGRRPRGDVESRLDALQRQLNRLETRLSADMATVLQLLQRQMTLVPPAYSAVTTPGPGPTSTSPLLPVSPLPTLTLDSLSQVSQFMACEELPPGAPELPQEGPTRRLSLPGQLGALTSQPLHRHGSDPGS
Method: CHO cells stably expressing hERG cultured with DMEM/F12 supplemented with 10% FBS, penicillin (100 U/ml), and streptomycin (100 μg/ml) were cultured in cell culture dishes (diameter = 35 mm) in an incubator at 37°C in an atmosphere of 5% CO2. They were passaged at a ratio of 1:5 every 48 h. The medium comprised 90% F12, 10% FBS, G418 (100 μg/ml), and hygromycin B (100 μg/ml). On the day of the assay, the cell culture medium was aspirated and washed with an extracellular solution. Then, 0.25% Trypsin–EDTA solution was added, and digestion was allowed for 3–5 min at room temperature. Digestive juice was aspirated, and cells were transferred to the experimental dish for electrophysiological recording after resuspension with the extracellular solution for future use.

D2S receptors = biological target: T4, D2S receptors (Homo sapiens, UniProt P14416); experiment: cAMP assay, inhibition at human dopamine D2S receptors; type: cell-based
T4 construct: expressed in transfected cells; host or cells: Flp-In-CHO cells
T4 sequence (P14416 1-414 isoform P14416-2): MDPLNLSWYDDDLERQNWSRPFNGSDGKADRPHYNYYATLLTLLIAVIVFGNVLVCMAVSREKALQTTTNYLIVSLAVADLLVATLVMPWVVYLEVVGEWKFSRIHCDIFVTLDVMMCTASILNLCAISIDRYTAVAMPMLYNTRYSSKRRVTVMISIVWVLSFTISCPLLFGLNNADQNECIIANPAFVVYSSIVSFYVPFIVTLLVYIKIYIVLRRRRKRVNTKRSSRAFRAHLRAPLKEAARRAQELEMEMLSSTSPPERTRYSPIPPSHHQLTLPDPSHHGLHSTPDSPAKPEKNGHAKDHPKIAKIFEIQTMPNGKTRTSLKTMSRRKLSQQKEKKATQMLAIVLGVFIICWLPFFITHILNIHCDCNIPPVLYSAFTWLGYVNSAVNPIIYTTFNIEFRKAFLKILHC
Method: as §1

[8] = Sprague-Dawley, rat, plasma, iv, male rats, 2 mg/kg
[9] = Sprague-Dawley, rat, plasma, po, male rats, 5 mg/kg, i.g.
[10] = male, Sprague-Dawley, rat, plasma, po, 5 mg/kg, i.g.

c1csc([C@@H]2CNCCO2)c1 [Compound 50B]
IC50 [1]: > 100 µM
Emax ([1]; haloperidol as MAX control, up to 100 μM, read-out: dopamine D2L antagonist Emax): 5.49%
IC50 (human 5-HT2A [2]): > 100 µM
Emax (human 5-HT2A [2]; ketanserin as MAX control, up to 100 μM): 31.5%
EC50 (human 5-HT2A [3]): 61.2 µM
Emax (human 5-HT2A [3]; serotonin as MAX control, up to 100 μM, read-out: 5-HT2A agonism Emax): 54.9%
Remaining (T = 60 min) ([4]; Mouse liver microsomes, 60 min): 53.5%
CLint scaled ([4]; mouse, liver microsomes): 80.8 mL/min/kg
half-life ([4]; mouse, liver microsomes): 1.13 h
Cmax [5, 8]: 6.8 µM
MRT last [5, 8]: 1.46 ± 0.231 h
Cmax [5, 9]: 4.38 µM
MRT last [5, 9]: 3.03 ± 0.625 h
CL/F ([5]; Sprague-Dawley, rat, plasma, po, male rats, 5 mg/kg, i.g., read-out: CL/F (converted)): 26 mL/min/kg
Vd/F ([5]; Sprague-Dawley, rat, plasma, po, male rats, 5 mg/kg, i.g., read-out: Vz/F): 2.86 ± 0.104 L/kg
CL/F ([5]; male rats, 2 mg/kg, i.v.): 22.2 ± 3.52 mL/min/kg
Vz/F ([5]; male rats, 2 mg/kg, i.v.): 2.48 ± 0.485 L/kg
AUC(0-t) ([5]; male rats, 5 mg/kg, i.g.): 18,929 ± 1774 h* nM
T1/2 ([5]; male rats, 5 mg/kg, i.g.): 1.28 ± 0.140 h
half-life ([5]; male, Sprague-Dawley, rat, plasma, iv, 2 mg/kg): 1.31 ± 0.313 h
AUC(0-t) ([5]; male, Sprague-Dawley, rat, plasma, iv, 2 mg/kg, i.v., read-out: AUC0-t): 8.98 µM·h
bioavailability ([5]; male, Sprague-Dawley, rat, plasma, oral, 5 mg/kg, i.g. vs 2 mg/kg i.v., read-out: F (oral bioavailability)): ~84.3%
Tmax [5, 10]: ~0.833 h
half-life [5, 10]: ~1.28 h
AUC(0-t) ([5]; male, Sprague-Dawley, rat, plasma, po, 5 mg/kg, i.g., read-out: AUC0-t): ~18.9 µM·h
MK801-induced increase in distance traveled ([6]; mice, 10 mg/kg p.o., MK801 0.8 mg/kg i.p.): significantly reduced
Inhibition of MK801-induced schizophrenia-like behavior (effective doses) ([6]; mice, single oral dose 0.3, 1, 3 and 10 mg/kg, MK801 0.8 mg/kg i.p.): markedly at 1, 3, and 10 mg/kg
Distance moved by mice in the presence or absence of MK801 ([6]; single oral dose 0.3, 1, 3 and 10 mg/kg): significantly reduced the distance moved by mice
efflux ratio at 120 min ([7]; Caco-2): 0.781
Papp A→B at 120 min ([7]; Caco-2, 120 min incubation): 35.2 ×10⁻⁶ cm/s
Papp B→A at 120 min ([7]; Caco-2, 120 min incubation): 27.5 ×10⁻⁶ cm/s
hERG cardiotoxicity (hERG): not cardiotoxic
IC50 (D2S receptors): > 100 µM
Emax (D2S receptors; haloperidol as MAX control, up to 100 μM, read-out: dopamine D2S antagonist Emax): 24.9%
